In US8314093B2, “2,4-pyrimidinediamine compounds for treating or preventing autoimmune diseases” (Rigel Pharmaceuticals, Inc., priority 2006, dated 2012):

System: cultured human mast cells (CHMC), IgE-induced degranulation
Test: LD Tryptase assay: CHMC low cell density IgE activation, tryptase release
Assay type: cell-based
Details: anti-IgE stimulation, 8 pt
Protocol: Inhibition of degranulation is measured at both low and high cell density by quantifying the release of the granule specific factors tryptase, histamine and hexosaminidase. Inhibition of release and/or synthesis of lipid mediators is assessed by measuring the release of leukotriene LTC4 and inhibition of release and/or synthesis of cytokines is monitored by quantifying TNF-α, IL-6 and IL-13. Tryptase and hexosaminidase are quantified using fluorogenic substrates as described in their respective examples. Histamine, TNFα, IL-6, IL-13 and LTC4 are quantified using the following commercial ELISA kits: histamine (Immunotech #2015, Beckman Coulter), TNFα (Biosource #KHC3011), IL-6 (Biosource #KMC0061), IL-13 (Biosource #KHC0132) and LTC4 (Cayman Chemical #520211). The protocols of the various assays are provided below.
CHMC Low Cell Density IgE Activation: Tryptase and LTC4 Assays
To duplicate 96-well U-bottom plates (Costar 3799) add 65 ul of compound dilutions or control samples that have been prepared in MT [137 mM NaCl, 2.7 mM KCl, 1.8 mM CaCl2, 1.0 mM MgCl2, 5.6 mM Glucose, 20 mM Hepes (pH 7.4), 0.1% Bovine Serum Albumin, (Sigma A4503)] containing 2% MeOH and 1% DMSO. Pellet CHMC cells (980 rpm, 10 min) and resuspend in pre-warmed MT. Add 65 ul of cells to each 96-well plate. Depending on the degranulation activity for each particular CHMC donor, load 1000-1500 cells/well. Mix four times followed by a 1 hr incubation at 37° C. During the 1 hr incubation, prepare 6× anti-IgE solution [rabbit anti-human IgE (1 mg/ml, Bethyl Laboratories A80-109A) diluted 1:167 in MT buffer]. Stimulate cells by adding 25 ul of 6× anti-IgE solution to the appropriate plates. Add 25 ul MT to un-stimulated control wells. Mix twice following addition of the anti-IgE. Incubate at 37° C. for 30 minutes. During the 30 minute incubation, dilute the 20 mM tryptase substrate stock solution [(Z-Ala-Lys-Arg-AMC 2TFA; Enzyme Systems Products, #AMC-246)] 1:2000 in tryptase assay buffer [0.1 M Hepes (pH 7.5), 10% w/v Glycerol, 10 uM Heparin (Sigma H-4898) 0.01% NaN3]. Spin plates at 1000 rpm for 10 min to pellet cells. Transfer 25 ul of supernatant to a 96-well black bottom plate and add 100 ul of freshly diluted tryptase substrate solution to each well. Incubate plates at room temperature for 30 min. Read the optical density of the plates at 355 nm/460 nm on a spectrophotometric plate reader.

| IC50 [nM] | Structure (SMILES) |
| --- | --- |
| < 5000 | COc1ccc(CN2C(=O)C(C)Oc3ccc(Nc4nc(Nc5cc(O)c(OC)c(OC)c5)ncc4F)cc32)cc1 (racemic) [Example 9, (R/S)-5-Fluoro-N2-(3-hydroxy-4,5-dimethoxyphenyl)-N4-[2-methyl-3-oxo-4-(4-methoxybenzyl)-benz[1,4]oxazin-6-yl]-2,4-pyrimidinediamine] |
| < 5000 | COc1ccc(CN2C(=O)C(C)Sc3ccc(Nc4nc(Nc5cc(O)c(OC)c(OC)c5)ncc4F)cc32)cc1 (racemic) [Example 10, (R/S)-5-Fluoro-N2-(3-hydroxy-4,5-dimethoxyphenyl)-N4-[2-methyl-3-oxo-4-(4-methoxybenzyl)-benzo[1,4]thiazin-6-yl]-2,4-pyrimidinediamine] |
| < 1000 | COc1cc(Nc2ncc(F)c(Nc3ccc4c(c3)NC(=O)CS4)n2)cc(O)c1OC [Example 1, 5-Fluoro-N2-(3-hydroxy-4,5-dimethoxyphenyl)-N4-[3-oxo-benzo[1,4]thiazin-6-yl]-2,4-pyrimidinediamine] |
| < 1000 | COc1cc(Nc2ncc(F)c(Nc3ccc4c(c3)NC(=O)C(C)(C)S4)n2)cc(O)c1OC [Example 2, N4-[2,2-Dimethyl-3-oxo-benzo[1,4]thiazin-6-yl]-5-fluoro-N2-(3-hydroxy-4,5-dimethoxyphenyl)-2,4-pyrimidinediamine] |
| < 1000 | COc1cc(Nc2ncc(F)c(Nc3ccc4c(c3)NC(=O)C(C)(C)O4)n2)cc(O)c1OC [Example 3, N4-[2,2-Dimethyl-3-oxo-benz[1,4]oxazin-6-yl]-5-fluoro-N2-(3-hydroxy-4,5-dimethoxyphenyl)-2,4-pyrimidinediamine] |
| < 1000 | COc1cc(Nc2ncc(F)c(Nc3ccc4c(n3)NC(=O)C(C)(C)O4)n2)cc(O)c1OC [Example 4, N4-[2,2-Dimethyl-3-oxo-pyrid[1,4]oxazin-6-yl]-5-fluoro-N2-(3-hydroxy-4,5-dimethoxyphenyl)-2,4-pyrimidinediamine] |
| < 1000 | COc1cc(Nc2ncc(F)c(Nc3ccc4c(c3)NC(=O)CO4)n2)cc(O)c1OC [Example 5, 5-Fluoro-N2-(3-hydroxy-4,5-dimethoxyphenyl)-N4-[3-oxo-benz[1,4]oxazin-6-yl]-2,4-pyrimidinediamine] |
| < 1000 | COc1cc(Nc2ncc(F)c(Nc3ccc4c(c3)NC(=O)C(F)(F)O4)n2)cc(O)c1OC [Example 6, N4-[2,2-Difluoro-3-oxo-benz[1,4]oxazin-6-yl]-5-fluoro-N2-(3-hydroxy-4,5-dimethoxyphenyl)-2,4-pyrimidinediamine] |
| < 5000 | COc1cc(Nc2ncc(F)c(Nc3ccc4c(c3)N(Cc3ccccn3)C(=O)CO4)n2)cc(O)c1OC [Example 7, 5-Fluoro-N2-(3-hydroxy-4,5-dimethoxyphenyl)-N4[3-oxo-4-(2-pyridylmethyl)-benz[1,4]oxazin-6-yl]-2,4-pyrimidinediamine] |
| < 1000 | COc1cc(Nc2ncc(F)c(Nc3ccc4c(c3)C(=O)NC(=O)C4(C)C)n2)cc(O)c1OC [Example 8, 5-Fluoro-N2-(3-hydroxy-4,5-dimethoxyphenyl)-N4-(1,3-(2H)-4,4-dimethylisoquinolinedione-7-yl)-2,4-pyrimidinediamine] |
| < 1000 | COc1cc(Nc2ncc(F)c(Nc3ccc4c(c3)N(C)C(=O)C(C)(C)S4(=O)=O)n2)cc(O)c1OC [Example 11, 5-Fluoro-N2-(3-hydroxy-4,5-dimethoxyphenyl)-N4-(2,2,4-trimethyl-1,1,3-trioxo-benzo[1,4]thiazin-6-yl)-2,4-pyrimidinediamine] |
| < 1000 | COc1cc(Nc2ncc(F)c(Nc3ccc4c(c3)N(C)C(=O)CS4)n2)cc(O)c1OC [Example 12, 5-Fluoro-N2-(3-hydroxy-4,5-dimethoxyphenyl)-N4-(4-methyl-3-oxo-benzo[1,4]thiazin-6-yl)-2,4-pyrimidinediamine] |
| < 1000 | COc1cc(Nc2ncc(F)c(Nc3ccc4c(n3)NCC(C)(C)O4)n2)cc(O)c1OC [Example 13, N4-(3,4-Dihydro-2H-2,2-dimethyl-5-pyrido[1,4]oxazin-6-yl)-N2-[3,4-dimethoxyphenyl-5-hydroxyphenyl]-5-fluoro-2,4-pyrimidinediamine] |
